These results are taken from PMC7803991, “Prediction of pharmacological activities from chemical structures with graph convolutional neural networks” (Scientific Reports, 2021).

Counter-ions that a name gives are not always drawn.

The assay addresses T1, serotonin transporter (SERT) (Homo sapiens, UniProt P31645).
T1 construct: gene SLC6A4
Description: cell-based.

T1 sequence (P31645 whole entry): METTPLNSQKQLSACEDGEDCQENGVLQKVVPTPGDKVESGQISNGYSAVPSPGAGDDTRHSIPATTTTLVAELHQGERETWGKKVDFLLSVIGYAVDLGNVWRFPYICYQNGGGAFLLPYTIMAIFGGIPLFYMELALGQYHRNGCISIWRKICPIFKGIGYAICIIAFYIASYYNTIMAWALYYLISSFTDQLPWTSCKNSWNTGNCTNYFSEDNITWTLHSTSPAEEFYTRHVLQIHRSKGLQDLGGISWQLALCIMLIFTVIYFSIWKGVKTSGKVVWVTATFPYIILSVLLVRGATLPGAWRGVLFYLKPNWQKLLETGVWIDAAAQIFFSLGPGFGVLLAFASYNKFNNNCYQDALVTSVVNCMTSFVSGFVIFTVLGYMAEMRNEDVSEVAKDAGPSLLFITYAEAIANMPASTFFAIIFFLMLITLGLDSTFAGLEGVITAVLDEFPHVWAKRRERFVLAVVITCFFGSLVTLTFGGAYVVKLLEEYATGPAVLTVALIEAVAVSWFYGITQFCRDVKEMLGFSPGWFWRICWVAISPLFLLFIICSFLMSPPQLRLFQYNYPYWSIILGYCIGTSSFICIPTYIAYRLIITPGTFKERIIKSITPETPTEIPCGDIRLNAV

Compound `Clc1ccc2sc(C3CCNCC3)nc2c1` [compound 1, 5-chloro-2-(piperidin-4-yl)-1,3-benzothiazole hydrochloride] had an IC50 of 6.24 nM.

One may read the IC50 as the concentration that inhibits the measured activity by half. Lower therefore signals greater potency in that assay.
